Source: ChEMBL document CHEMBL4425166, “Discovery of Pyridinyl Acetamide Derivatives as Potent, Selective, and Orally Bioavailable Porcupine Inhibitors” (ACS Med Chem Lett, 2016)
Values after ≈ are worked out from the molar mass of the structure shown. Active and inactive are the calls of the source. The rule behind the calls is not given here.

How the values were obtained:
[1] = biological target: T1, Protein-serine O-palmitoleoyltransferase porcupine (Mus musculus, UniProt Q9JJJ7); test: Inhibition of PORCN in […] overexpressing Wnt3A co-cultured with TM3 cells transfected with Wnt-luciferase gene after 24 hrs by luminescence assay; format: cell-based
T1 sequence (Q9JJJ7 whole entry): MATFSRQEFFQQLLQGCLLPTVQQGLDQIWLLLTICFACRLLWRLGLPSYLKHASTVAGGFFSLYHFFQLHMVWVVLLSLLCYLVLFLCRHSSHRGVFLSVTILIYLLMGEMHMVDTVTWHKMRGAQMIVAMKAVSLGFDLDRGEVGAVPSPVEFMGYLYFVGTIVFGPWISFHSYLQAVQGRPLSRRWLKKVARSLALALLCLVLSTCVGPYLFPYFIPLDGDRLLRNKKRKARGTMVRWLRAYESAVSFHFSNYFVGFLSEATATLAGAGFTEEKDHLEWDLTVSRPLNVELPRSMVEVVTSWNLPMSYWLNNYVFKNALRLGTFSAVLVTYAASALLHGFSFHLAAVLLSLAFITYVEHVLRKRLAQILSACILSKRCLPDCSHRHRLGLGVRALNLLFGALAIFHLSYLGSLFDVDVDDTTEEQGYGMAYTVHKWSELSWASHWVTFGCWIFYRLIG

[2] = Aqueous solubility of compound in buffer of pH 6.8 after 24 hrs by UV-based high throughput assay; format: physicochemical
Cytochrome P450 = test: Inhibition of CYP450 (unknown origin) up to 10 uM; format: ADME, protein assay; conditions: human
[3] = Clearance in Balb/c mouse at 2 mg/kg, iv after 24 hrs by LC/MS/MS analysis; format: ADME, organism-based; conditions: in vivo
[4] = Clearance in rat by LC/MS/MS analysis; format: ADME; conditions: in vivo
[5] = Clearance in dog by LC/MS/MS analysis; format: ADME, Canis lupus familiaris; conditions: in vivo
[6] = Volume of distribution at steady state in Balb/c mouse at 2 mg/kg, iv after 24 hrs by LC/MS/MS analysis; format: ADME, organism-based; conditions: in vivo, read-out: Vdss
[7] = Volume of distribution at steady state in rat by LC/MS/MS analysis; format: ADME; conditions: in vivo, read-out: Vdss
[8] = Volume of distribution at steady state in dog by LC/MS/MS analysis; format: ADME, Canis lupus familiaris; conditions: in vivo, read-out: Vdss
[9] = Terminal half life in Balb/c mouse at 2 mg/kg, iv or 5 mg/kg via oral gavage by LC/MS/MS analysis; format: ADME, organism-based; conditions: in vivo, read-out: beta t1/2 (converted)
[10] = Terminal half life in rat by LC/MS/MS analysis; format: ADME; conditions: in vivo, read-out: beta t1/2 (converted)
[11] = Terminal half life in dog by LC/MS/MS analysis; format: ADME, Canis lupus familiaris; conditions: in vivo, read-out: beta t1/2 (converted)
[12] = Oral bioavailability in Balb/c mouse at 5 mg/kg via gavage by LC/MS/MS analysis; format: ADME, organism-based; conditions: in vivo
[13] = Oral bioavailability in rat by LC/MS/MS analysis; format: ADME, organism-based; conditions: in vivo
[14] = Oral bioavailability in dog by LC/MS/MS analysis; format: ADME, organism-based, Canis lupus familiaris; conditions: in vivo
Cytochrome P450 2C9 = Cytochrome P450 2C9 (Homo sapiens, UniProt P11712); test: Inhibition of CYP2C9 (unknown origin); format: ADME
Cytochrome P450 2D6 = Cytochrome P450 2D6 (Homo sapiens, UniProt P10635); test: Inhibition of CYP2D6 (unknown origin); format: ADME
Cytochrome P450 3A4 = Cytochrome P450 3A4 (Homo sapiens, UniProt P08684); test: Inhibition of CYP3A4 (unknown origin); format: ADME
[15] = Protein binding in mouse plasma by rapid equilibrium dialysis; format: ADME, cell-free; conditions: read-out: PPB (converted)
[16] = Protein binding in rat plasma by rapid equilibrium dialysis; format: ADME, cell-free; conditions: read-out: PPB (converted)
[17] = Protein binding in dog plasma by rapid equilibrium dialysis; format: ADME, cell-free, Canis lupus familiaris; conditions: read-out: PPB
[18] = Protein binding in monkey plasma by rapid equilibrium dialysis; format: ADME, cell-free, Macaca mulatta; conditions: rhesus monkey, read-out: PPB (converted)
[19] = Protein binding in human plasma by rapid equilibrium dialysis; format: ADME, cell-free; conditions: read-out: PPB (converted)
[20] = Apparent permeability across apical to basolateral side of human Caco2 cells; format: ADME, cell-based; conditions: Caco-2
[21] = Efflux ratio of permeability in human Caco2 cells; format: ADME, cell-based; conditions: Caco-2
Mus musculus [22] = test: Inhibition of Axin2 mRNA level in nude mouse MMTV-Wnt1 model at 3 mg/kg administered as oral gavage measured at 5 hrs by RT-PCR analysis; format: functional
Mus musculus [23] = test: Inhibition of Axin2 mRNA level in nude mouse MMTV-Wnt1 model at 3 mg/kg administered as oral gavage measured after 24 hrs by RT-PCR analysis; format: functional, organism-based
Mus musculus [24] = test: Antitumor activity in nude mouse MMTV-Wnt1 model assessed as tumor growth inhibition at 0.3 mg/kg, po qd administered for 2 weeks relative to control; format: functional
Mus musculus [25] = test: Antitumor activity in nude mouse MMTV-Wnt1 model assessed as tumor growth inhibition at 1 mg/kg, po qd administered for 2 weeks relative to control; format: functional
Mus musculus [26] = test: Antitumor activity in nude mouse MMTV-Wnt1 model assessed as tumor growth inhibition at 3 mg/kg, po qd administered for 2 weeks relative to control; format: functional
[27] = Toxicity in nude mouse MMTV-Wnt1 model assessed as body weight loss at 0.3 to 3 mg/kg, po qd administered for 2 weeks measured during compound dosing; format: organism-based; conditions: in vivo, 336 h
[28] = Dose normalized Cmax in Balb/c mouse at 5 mg/kg via oral gavage after 24 hrs by LC/MS/MS analysis; format: ADME, organism-based; conditions: in vivo
[29] = Dose normalized AUC in Balb/c mouse at 5 mg/kg via oral gavage after 24 hrs by LC/MS/MS analysis; format: ADME, organism-based; conditions: in vivo
[30] = biological target: T2, Protein-serine O-palmitoleoyltransferase porcupine (Homo sapiens, UniProt Q9H237); test: Displacement of [3H]-GNF-1331 from human PORCN after 3 hrs by scintillation counting analysis
T2 sequence (Q9H237 whole entry): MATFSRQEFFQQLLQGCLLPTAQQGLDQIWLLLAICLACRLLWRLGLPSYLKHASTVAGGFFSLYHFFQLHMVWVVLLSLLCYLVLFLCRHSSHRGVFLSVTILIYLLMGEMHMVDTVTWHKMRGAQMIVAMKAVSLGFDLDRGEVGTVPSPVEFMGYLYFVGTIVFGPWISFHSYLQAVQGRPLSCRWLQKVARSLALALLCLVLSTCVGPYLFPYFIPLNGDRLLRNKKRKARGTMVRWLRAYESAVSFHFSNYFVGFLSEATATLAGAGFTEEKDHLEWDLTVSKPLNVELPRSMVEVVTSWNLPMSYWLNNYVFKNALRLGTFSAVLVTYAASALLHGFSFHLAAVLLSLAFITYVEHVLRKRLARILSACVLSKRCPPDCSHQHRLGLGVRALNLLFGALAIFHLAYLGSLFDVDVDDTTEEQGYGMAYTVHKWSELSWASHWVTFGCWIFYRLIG

Sequence of Cytochrome P450 3A4 (P08684 whole entry): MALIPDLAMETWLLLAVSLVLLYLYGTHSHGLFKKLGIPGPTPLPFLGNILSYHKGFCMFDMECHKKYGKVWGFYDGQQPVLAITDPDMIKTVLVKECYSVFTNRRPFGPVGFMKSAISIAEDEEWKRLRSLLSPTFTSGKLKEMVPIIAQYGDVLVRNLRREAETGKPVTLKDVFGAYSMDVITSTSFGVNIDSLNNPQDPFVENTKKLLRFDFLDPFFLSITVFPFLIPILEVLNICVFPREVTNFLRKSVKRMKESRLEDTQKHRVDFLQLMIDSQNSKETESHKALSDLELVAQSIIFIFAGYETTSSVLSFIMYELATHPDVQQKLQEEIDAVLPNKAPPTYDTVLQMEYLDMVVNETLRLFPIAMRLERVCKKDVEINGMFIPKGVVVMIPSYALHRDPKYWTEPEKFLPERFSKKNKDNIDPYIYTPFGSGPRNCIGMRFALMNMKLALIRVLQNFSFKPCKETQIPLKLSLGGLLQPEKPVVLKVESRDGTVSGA
Sequence of Cytochrome P450 2D6 (P10635 whole entry): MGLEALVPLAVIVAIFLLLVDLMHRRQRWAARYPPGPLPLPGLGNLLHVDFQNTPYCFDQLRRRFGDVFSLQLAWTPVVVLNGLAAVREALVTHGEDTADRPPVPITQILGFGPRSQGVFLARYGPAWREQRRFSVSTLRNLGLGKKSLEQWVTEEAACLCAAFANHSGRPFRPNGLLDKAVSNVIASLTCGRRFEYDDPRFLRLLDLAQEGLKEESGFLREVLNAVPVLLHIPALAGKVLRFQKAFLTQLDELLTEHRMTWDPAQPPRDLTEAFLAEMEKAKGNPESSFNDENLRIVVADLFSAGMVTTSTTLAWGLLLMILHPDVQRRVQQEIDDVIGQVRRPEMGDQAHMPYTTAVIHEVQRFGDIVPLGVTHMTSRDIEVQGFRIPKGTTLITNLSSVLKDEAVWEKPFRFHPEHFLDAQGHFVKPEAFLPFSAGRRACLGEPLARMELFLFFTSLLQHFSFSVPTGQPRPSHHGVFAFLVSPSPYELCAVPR
Sequence of Cytochrome P450 2C9 (P11712 whole entry): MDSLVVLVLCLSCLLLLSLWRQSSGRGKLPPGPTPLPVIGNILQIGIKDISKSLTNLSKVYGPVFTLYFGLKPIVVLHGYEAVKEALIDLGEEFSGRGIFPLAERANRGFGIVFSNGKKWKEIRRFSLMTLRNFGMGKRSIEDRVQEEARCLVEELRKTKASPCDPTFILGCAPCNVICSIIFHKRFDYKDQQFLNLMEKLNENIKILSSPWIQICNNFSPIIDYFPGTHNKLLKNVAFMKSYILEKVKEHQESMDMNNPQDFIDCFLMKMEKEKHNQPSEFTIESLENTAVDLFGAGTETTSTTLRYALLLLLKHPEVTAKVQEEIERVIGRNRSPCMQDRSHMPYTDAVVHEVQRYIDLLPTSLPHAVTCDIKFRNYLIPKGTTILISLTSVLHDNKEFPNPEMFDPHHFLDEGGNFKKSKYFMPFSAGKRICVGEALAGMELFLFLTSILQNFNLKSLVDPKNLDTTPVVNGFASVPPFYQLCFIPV

Compound: CC(=O)N1CCN(c2ccc(NC(=O)Cc3cnc(-c4ccnc(C)c4)c(C)c3)nc2)CC1
- IC50 [1]: 0.7 nM
- solubility at 24 h [2]: > 175 µM

Compound: COc1ccc2nc(NC(=O)Cc3ccc(-c4ccnc(C)c4)cc3)sc2c1
- inhibition (INH) (Cytochrome P450): Not Active

Compound: CC(=O)N1CCN(c2ccc(NC(=O)Cc3cnc(-c4ccnc(F)c4)c(C)c3)nc2)CC1
- IC50 [1]: 0.8 nM
- solubility at 24 h [2]: 350 µM (≈ 157 µg/mL)
- clearance [3]: 5.33 mL/min/kg
- clearance [4]: 5.35 mL/min/kg
- clearance [5]: 0.67 mL/min/kg
- Vd [6]: 0.57 L/kg
- Vd [7]: 0.7 L/kg
- Vd [8]: 0.25 L/kg
- half-life [9]: 2.44 h
- half-life [10]: 2.77 h
- half-life [11]: 8.86 h
- bioavailability [12]: 96%
- bioavailability [13]: 84%
- bioavailability [14]: 72%
- IC50 (Cytochrome P450 2C9): > 10000 nM
- IC50 (Cytochrome P450 2D6): > 10000 nM
- IC50 (Cytochrome P450 3A4): > 10000 nM
- fraction unbound [15]: 0.12
- fraction unbound [16]: 0.169
- fraction unbound [17]: 0.091
- fraction unbound [18]: 0.288
- fraction unbound [19]: 0.05
- Papp A→B [20]: 7.5 ×10⁻⁶ cm/s
- efflux ratio [21]: 3.2
- inhibition in vivo at 3 mg/kg (Mus musculus [22]): 90%
- inhibition (Mus musculus [23]): inactive
- T/C (Mus musculus [24]): 15%
- T/C (Mus musculus [25]): -74%
- T/C (Mus musculus [26]): -84%
- Activity [27]: Non-Toxic

Compound: COc1ccc2nc(NC(=O)Cc3ccc(-c4ccncc4)cc3)sc2c1
- Cmax/dose [28]: 4100 nM
- AUC/dose [29]: 26 µM·h
- clearance [3]: 2.49 mL/min/kg
- IC50 (Cytochrome P450 3A4): 800 nM

Compound: Cc1cc(-c2ccc(OC(=O)Nc3ccc(-c4ccccc4)cc3)cc2)ccn1
- IC50 [1]: > 10000 nM

Compound: COc1ccc2nc(C(=O)NCc3ccc(-c4ccncc4)cc3)sc2c1
- IC50 [1]: 380 nM

Compound: Cc1cc(-c2ncc(CC(=O)Nc3ccc(-c4ccccn4)cn3)cc2C)ccn1
- IC50 [1]: 0.4 nM
- solubility at 24 h [2]: 32 µM (≈ 12.7 µg/mL)

Compound: Cc1cc(-c2ccc(CC(=O)Nc3ccc(-c4cnccn4)cn3)cn2)ccn1
- solubility at 24 h [2]: 16 µM (≈ 6.12 µg/mL)

Compound: Cc1cc(-c2ncc(CC(=O)Nc3ccc(-c4cnccn4)cn3)cc2C)ccn1 [WNT-974]
- IC50 [1]: 0.4 nM
- solubility at 24 h [2]: 210 µM (≈ 83.3 µg/mL)

Compound: Cc1cc(-c2ccc(CC(=O)Nc3ccc(-c4ccccc4)cn3)cc2)ccn1
- IC50 [1]: 0.7 nM
- solubility at 24 h [2]: < 2 µM

Compound: Cc1cc(-c2ccc(CC(=O)Nc3ccc(-c4ccccc4)cn3)cn2)ccn1
- IC50 [1]: 0.2 nM
- solubility at 24 h [2]: 6 µM (≈ 2.28 µg/mL)

Compound: Cc1cc(-c2ccc(CC(=O)Nc3ccc(-c4ccccn4)cn3)cn2)ccn1
- solubility at 24 h [2]: 17 µM (≈ 6.48 µg/mL)

Compound: Cc1cc(CC(=O)Nc2ccc(-c3cnccn3)cn2)cnc1-c1ccnc(CO)c1
- IC50 [1]: 26 nM

Compound: Cc1cc(-c2ccc(NC(=O)Nc3ccc(-c4ccccc4)cc3)cc2)ccn1
- IC50 [1]: > 10000 nM

Compound: COC(=O)N1CCN(c2ccc(NC(=O)Cc3cnc(-c4ccnc(C)c4)c(C)c3)nc2)CC1
- solubility at 24 h [2]: > 175 µM

Compound: Cc1cc(CC(=O)Nc2ccc(-c3cnccn3)cn2)cnc1-c1ccnc(F)c1
- solubility at 24 h [2]: 105 µM (≈ 42 µg/mL)

Compound: CCCn1c(SCC(=O)Nc2nc3ccc(OC)cc3s2)nnc1-c1ccncc1
- IC50 [1]: 12 nM
- IC50 [30]: 8 nM
- Cmax/dose [28]: 14 nM
- AUC/dose [29]: 0.03 µM·h

Compound: Cc1cc(CC(=O)Nc2ccc(N3CCNCC3)cn2)cnc1-c1ccnc(F)c1
- IC50 [1]: 24 nM

Compound: O=C(Cc1ccc(-c2ccncc2)cc1)Nc1nc(-c2ccccc2)cs1
- IC50 [1]: 5.5 nM
